Laboratory results published in PMC10794144, “A novel antibiotic class targeting the lipopolysaccharide transporter” (Nature, 2024).

System: A. baumannii
Assay: microbe, parasite or virus in culture
How it was run: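 MIC was taken as the lowest concentration without visible growth, or past which OD600 no longer fell. Testing followed CLSI M07 and M100 broth microdilution, using 0.5 McFarland-derived inocula in CAMHB (LB for A. baylyi isolates).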

CN1C(=O)[C@H](CCCCN)NC(=O)[C@H](CCCN)NCc2cccnc2Sc2c(Cl)ccc(Cl)c2CNC(=O)[C@@H]1Cc1c[nH]c2ccccc12 [RO7075573]
32 mg/L: MIC 100% (ROB08702, Study ROC010) | MIC 100% (ROB08704, Study LGC286210) | MIC 100% (ROB08704, Study LGC296813) | MIC 100% (ROB08704, Study LGC308175)
0.5 mg/L: MIC 100% (ROB08701, Study ROC010) | MIC 80% (ROB08703, Study LGC284879) | MIC 80% (ROB08703, Study LGC296813) | MIC 80% (ROB08703, Study LGC299544) | MIC 80% (ROB08703, Study ROC010) | MIC 100% (ROB08703, Study ROC010) | MIC 80% (ROB08704, Study LGC281440) | MIC 80% (ROB08704, Study LGC284879) | MIC 80% (ROB08704, Study LGC286210) | MIC 80% (ROB08704, Study LGC293598) | MIC 80% (ROB08704, Study LGC294355) | MIC 80% (ROB08704, Study LGC295147) | MIC 80% (ROB08704, Study LGC296813) | MIC 80% (ROB08704, Study LGC299544) | MIC 80% (ROB08704, Study LGC301026)
2 mg/L: MIC 80% (ROB08702, Study LGC282160)
0.12 mg/L: MIC 80% (ROB08701, Study LGC308175) | MIC 80% (ROB08701, Study ROC012) | MIC 80% (ROB08702, Study LGC281440) | MIC 80% (ROB08702, Study LGC284879) | MIC 80% (ROB08702, Study LGC285582) | MIC 80% (ROB08702, Study LGC286210) | MIC 80% (ROB08702, Study LGC293598) | MIC 80% (ROB08702, Study LGC294355) | MIC 80% (ROB08702, Study LGC295147) | MIC 80% (ROB08702, Study LGC296813) | MIC 80% (ROB08702, Study LGC299544) | MIC 80% (ROB08702, Study LGC301026) | MIC 80% (ROB08702, Study LGC308175) | MIC 80% (ROB08702, Study ROC012) | MIC 80% (ROB08703, Study LGC293598)
>64 mg/L: MIC 100% (ROB08702, Study LGC281440) | MIC 100% (ROB08702, Study LGC282160) | MIC 100% (ROB08702, Study LGC284879) | MIC 100% (ROB08702, Study LGC285582) | MIC 100% (ROB08702, Study LGC286210) | MIC 100% (ROB08702, Study LGC293598) | MIC 100% (ROB08702, Study LGC294355) | MIC 100% (ROB08703, Study LGC284879) | MIC 100% (ROB08703, Study LGC293598) | MIC 80% (ROB08703, Study LGC294355) | MIC 100% (ROB08703, Study LGC294355) | MIC 100% (ROB08704, Study LGC284879) | MIC 100% (ROB08704, Study LGC293598) | MIC 100% (ROB08704, Study LGC294355)
0.25 mg/L: MIC 80% (ROB08701, Study ROC010) | MIC 80% (ROB08702, Study ROC010) | MIC 80% (ROB08703, Study LGC281440) | MIC 80% (ROB08703, Study LGC282160) | MIC 80% (ROB08703, Study LGC285582) | MIC 80% (ROB08703, Study LGC286210) | MIC 80% (ROB08703, Study LGC295147) | MIC 80% (ROB08703, Study LGC301026) | MIC 80% (ROB08703, Study LGC308175) | MIC 80% (ROB08703, Study ROC012) | MIC 80% (ROB08704, Study LGC282160) | MIC 80% (ROB08704, Study LGC285582) | MIC 80% (ROB08704, Study LGC308175)
8 mg/L: MIC 100% (ROB08701, Study ROC012)
16 mg/L: MIC 100% (ROB08703, Study LGC281440) | MIC 100% (ROB08704, Study LGC281440)
64 mg/L: MIC 100% (ROB08701, Study LGC301026) | MIC 100% (ROB08701, Study LGC308175) | MIC 100% (ROB08702, Study LGC295147) | MIC 100% (ROB08702, Study LGC296813) | MIC 100% (ROB08702, Study LGC299544) | MIC 100% (ROB08702, Study LGC301026) | MIC 100% (ROB08702, Study LGC308175) | MIC 100% (ROB08702, Study ROC012) | MIC 100% (ROB08703, Study LGC282160) | MIC 100% (ROB08703, Study LGC285582) | MIC 100% (ROB08703, Study LGC286210) | MIC 100% (ROB08703, Study LGC295147) | MIC 100% (ROB08703, Study LGC296813) | MIC 100% (ROB08703, Study LGC299544) | MIC 100% (ROB08703, Study LGC301026) | MIC 100% (ROB08703, Study LGC308175) | MIC 100% (ROB08703, Study ROC012) | MIC 100% (ROB08704, Study LGC282160) | MIC 100% (ROB08704, Study LGC285582) | MIC 100% (ROB08704, Study LGC295147) | MIC 100% (ROB08704, Study LGC299544) | MIC 100% (ROB08704, Study LGC301026)
